Reference: PubChem BioAssay AID488840 (Broad Institute, 2010)
Active and inactive are the calls of the source.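 How the source made its calls: active means half-maximal dose of signal decrease from fit no higher than ten times the top valid tested dose; inconclusive means fit invalid, or curve flat with 30 to 70% inhibition; inactive means the rest.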

Biological target: Lysine-specific demethylase 4A (Homo sapiens) (UniProt O75164)
Assay: JMJD2A histone demethylase inhibitors, dose response, selectivity assay for GASC-1 inhibitor project, biochemical, DELFIA europium, cherry-picked samples (AID 488840);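 further: europium signal reports the dimethyl H3K9 product detected by antibody so inhibitors lower it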
Conditions: GST-JMJD2A(1-420) H3K9me3 demethylation

Sequence of Lysine-specific demethylase 4A (Homo sapiens) (O75164 whole entry, looked up): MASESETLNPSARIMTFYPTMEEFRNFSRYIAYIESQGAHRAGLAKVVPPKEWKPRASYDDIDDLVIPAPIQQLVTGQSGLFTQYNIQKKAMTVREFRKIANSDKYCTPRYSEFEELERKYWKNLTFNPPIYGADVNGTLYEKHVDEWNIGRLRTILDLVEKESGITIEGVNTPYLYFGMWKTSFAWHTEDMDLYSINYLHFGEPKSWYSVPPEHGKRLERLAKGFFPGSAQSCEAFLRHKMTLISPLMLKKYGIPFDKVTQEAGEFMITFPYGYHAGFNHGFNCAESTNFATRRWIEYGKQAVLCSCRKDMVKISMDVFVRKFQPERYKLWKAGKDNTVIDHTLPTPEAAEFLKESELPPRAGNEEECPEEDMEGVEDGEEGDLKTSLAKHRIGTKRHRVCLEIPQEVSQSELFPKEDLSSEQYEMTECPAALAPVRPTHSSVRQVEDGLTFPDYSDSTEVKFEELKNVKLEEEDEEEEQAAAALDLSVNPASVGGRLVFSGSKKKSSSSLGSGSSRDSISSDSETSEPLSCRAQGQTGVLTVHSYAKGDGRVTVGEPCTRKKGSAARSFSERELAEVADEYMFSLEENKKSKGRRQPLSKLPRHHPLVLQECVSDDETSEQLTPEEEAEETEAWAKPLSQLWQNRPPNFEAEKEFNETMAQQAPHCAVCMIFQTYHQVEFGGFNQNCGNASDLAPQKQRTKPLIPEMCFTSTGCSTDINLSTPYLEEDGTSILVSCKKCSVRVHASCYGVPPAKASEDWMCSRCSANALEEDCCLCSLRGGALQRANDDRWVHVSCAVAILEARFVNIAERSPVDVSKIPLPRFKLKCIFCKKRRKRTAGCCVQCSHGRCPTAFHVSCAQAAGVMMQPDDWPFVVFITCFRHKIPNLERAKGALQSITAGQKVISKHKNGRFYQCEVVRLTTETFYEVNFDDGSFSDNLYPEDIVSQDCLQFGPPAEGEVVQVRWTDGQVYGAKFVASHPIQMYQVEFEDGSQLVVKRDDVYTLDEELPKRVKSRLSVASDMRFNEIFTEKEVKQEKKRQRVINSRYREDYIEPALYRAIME

AC50: > 6 µM (inactive)
SMILES: CC(=O)C[C@@H](O)CC(=O)[C@H]1OC(=O)[C@H](C)CCCCc2ccccc21
